In patent US20260108546A1 (ELI LILLY AND COMPANY, priority 2024, published 2026) one finds Emax and EC50 data, which are given here for 16 compounds.

For this assay, the target named is T1, hGIP-R (Homo sapiens, UniProt P48546).
T1 construct: expressed in transfected cells; host or cells: HEK-293 clonal cell lines
T1 sequence (P48546 22-466): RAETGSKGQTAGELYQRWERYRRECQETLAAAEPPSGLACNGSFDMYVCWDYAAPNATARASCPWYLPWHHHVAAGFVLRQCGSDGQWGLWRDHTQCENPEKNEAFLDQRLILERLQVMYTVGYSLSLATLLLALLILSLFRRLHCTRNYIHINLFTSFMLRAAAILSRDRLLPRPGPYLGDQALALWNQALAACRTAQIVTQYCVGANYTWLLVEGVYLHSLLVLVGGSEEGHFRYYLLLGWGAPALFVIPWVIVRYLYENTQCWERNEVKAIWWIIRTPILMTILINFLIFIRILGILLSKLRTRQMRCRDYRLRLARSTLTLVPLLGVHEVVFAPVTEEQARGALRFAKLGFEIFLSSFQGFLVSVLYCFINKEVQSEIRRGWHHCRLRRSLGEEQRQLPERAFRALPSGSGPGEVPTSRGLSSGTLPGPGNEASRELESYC
The experiment in a line: Functional hGIP-R Assay (cAMP formation, HTRF). The class given is cell-based. The settings on record: for Emax: cAMP efficacy, percent of maximal response to GIP(1-42)OH, 37° C., 0.1% bovine casein, arithmetic mean ± SEM; for EC50: cAMP potency, HEK-293 cells expressing hGIP-R, incubated at 37° C. in the presence of 0.1% bovine casein, geometric mean, read-out: Human GIP-R EC50, nM (SEM, n). In outline: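 HEK-293 cells expressing hGIP-R were given a 20-point compound series in DMEM with 0.1% casein, 250 μM IBMX, 1% DMSO, 30 min at 37 °C. cAMP was read by HTRF against a standard curve, expressed as % of human GIP (1-42) OH maximum; EC50 and Emax came from four-parameter fits.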
Background: cAMP levels reflect the balance of adenylyl cyclase and phosphodiesterase activity.

SMILES strings stand for the structures.

Broadly, the Emax is the maximal effect, on the per cent scale that the assay sets. What is called EC50 is the concentration at which the effect is half-maximal. Consider `Cn1cc2cc(-c3ccc([C@H]4C[C@@H]4C(=O)N[C@H](Cc4cnc5ncccn45)C(=O)NC(C)(C)Cn4nc(C(F)(F)F)cc4C4CC4)cc3)cnc2n1` [Example 37, (1S,2S)-N-((R)-1-((1-(5-Cyclopropyl-3-(trifluoromethyl)-1H-pyrazol-1-yl)-2-methylpropan-2-yl)amino)-3-(imidazo[1,2-a]pyrimidin-3-yl)-1-oxopropan-2-yl)-2-(4-(2-methyl-2H-pyrazolo[3,4-b]pyridin-5-yl)phenyl) cyclopropane-1-carboxamide], for which the Emax is 77.4 ± 5.92% and the EC50 was determined as 10.8 nM.
With `Cn1cc(-c2cc(C(F)(F)F)nn2CC(C)(C)NC(=O)[C@@H](Cc2cnc3ncccn23)NC(=O)[C@H]2C[C@@H]2c2ccc(-c3cnc4nccn4c3)cc2)cn1` [Example 38], the Emax stood at 92.1% and the EC50 is 7.93 nM.
For the compound `CC(C)(Cn1ccc(C(F)(F)F)n1)NC(=O)[C@@H](Cc1cnc2ncccn12)NC(=O)[C@H]1C[C@@H]1c1ccc(-c2cnc3nccn3c2)cc1` [Example 39, (1S,2S)-N-((R)-3-(Imidazo[1,2-a]pyrimidin-3-yl)-1-((2-methyl-1-(3-(trifluoromethyl)-1H-pyrazol-1-yl)propan-2-yl)amino)-1-oxopropan-2-yl)-2-(4-(imidazo[1,2-a]pyrimidin-6-yl)phenyl) cyclopropane-1-carboxamide], the Emax is 77.8 ± 2.57% and the EC50 is 63.1 nM.
In the case of `CC(C)(Cn1nc(C(F)(F)F)cc1C1CC1)NC(=O)[C@@H](Cc1cnc2ncccn12)NC(=O)[C@H]1C[C@@H]1c1ccc(NC(=O)C2CC(F)(F)C2)cc1` [Example 40, N-(4-((1S,2S)-2-(((R)-1-((1-(5-cyclopropyl-3-(trifluoromethyl)-1H-pyrazol-1-yl)-2-methylpropan-2-yl)amino)-3-(imidazo[1,2-a]pyrimidin-3-yl)-1-oxopropan-2-yl)carbamoyl)cyclopropyl)phenyl)-3,3-difluorocyclobutane-1-carboxamide], the Emax turned out to be 60.7 ± 0.306% and the EC50 was found to be 3.55 nM.
For the compound `Cn1cc(C[C@@H](NC(=O)[C@H]2C[C@@H]2c2ccc(-c3cnc4nn(C)cc4c3)cc2)C(=O)NC(C)(C)Cn2nc(C(F)(F)F)cc2-c2cn[nH]c2)cn1` [Example 41, (1S,2S)-N—((R)-1-((2-Methyl-1-(5-(trifluoromethyl)-1′H,2H-[3,4′-bipyrazol]-2-yl)propan-2-yl)amino)-3-(1-methyl-1H-pyrazol-4-yl)-1-oxopropan-2-yl)-2-(4-(2-methyl-2H-pyrazolo[3,4-b]pyridin-5-yl)phenyl)cyclopropane-1-carboxamide], the Emax amounted to 111 ± 4.76% and the EC50 turned out to be 20.2 nM.
As for `Cn1cc(C[C@@H](NC(=O)[C@H]2C[C@@H]2c2ccc(-c3cnc4nn(C)cc4c3)cc2)C(=O)NC(C)(C)Cn2nc(C(F)(F)F)cc2-c2cc[nH]n2)cn1` [Example 42], the Emax turned out to be 114 ± 10.2% and the EC50 was 52.7 nM.
For the compound `Cn1cc2cc(-c3ccc([C@H]4C[C@@H]4C(=O)N[C@H](Cc4cnn(C(F)F)c4)C(=O)NC(C)(C)Cn4nc(C(F)(F)F)cc4-c4cn[nH]n4)cc3)cnc2n1` [Example 43, (1S,2S)-N-((R)-1-((1-(5-(2H-1,2,3-Triazol-4-yl)-3-(trifluoromethyl)-1H-pyrazol-1-yl)-2-methylpropan-2-yl)amino)-3-(1-(difluoromethyl)-1H-pyrazol-4-yl)-1-oxopropan-2-yl)-2-(4-(2-methyl-2H-pyrazolo[3,4-b]pyridin-5-yl)phenyl)cyclopropane-1-carboxamide], the Emax amounted to 116 ± 4.26% and the concentration giving a half-maximal response (EC50) turned out to be 61.1 nM.
On the same counts, the results for `Cn1cc(C[C@@H](NC(=O)[C@H]2C[C@@H]2c2ccc(-c3cnc4nn(C)cc4c3)cc2)C(=O)NC(C)(C)Cn2nc(C(F)F)cc2-c2cn[nH]n2)cn1` [Example 44, (1S,2S)-N-((R)-1-((1-(3-(Difluoromethyl)-5-(2H-1,2,3-triazol-4-yl)-1H-pyrazol-1-yl)-2-methylpropan-2-yl)amino)-3-(1-methyl-1H-pyrazol-4-yl)-1-oxopropan-2-yl)-2-(4-(2-methyl-2H-pyrazolo[3,4-b]pyridin-5-yl)phenyl)cyclopropane-1-carboxamide] are 111 ± 17.5% and 122 nM.
`CC(C)(Cn1cc(C(F)(F)F)cn1)NC(=O)[C@@H](Cc1cnc2ncccn12)NC(=O)[C@H]1C[C@@H]1c1ccc(NC(=O)C2CCC(F)(F)CC2)cc1` [Example 45, 4,4-Difluoro-N-(4-((1S,2S)-2-(((R)-3-(imidazo[1,2-a]pyrimidin-3-yl)-1-((2-methyl-1-(4-(trifluoromethyl)-1H-pyrazol-1-yl)propan-2-yl)amino)-1-oxopropan-2-yl)carbamoyl)cyclopropyl)phenyl)cyclohexane-1-carboxamide]: the Emax was 79.8 ± 9.84% and the EC50 is 10.7 nM.
For `CC(C)(Cn1cc(C(F)(F)F)cn1)NC(=O)[C@@H](Cc1cnc2ncccn12)NC(=O)[C@H]1C[C@@H]1c1ccc(NC(=O)C2CC(F)(F)C2)cc1` [Example 46, 3,3-Difluoro-N-(4-((1S,2S)-2-(((R)-3-(imidazo[1,2-a]pyrimidin-3-yl)-1-((2-methyl-1-(4-(trifluoromethyl)-1H-pyrazol-1-yl)propan-2-yl)amino)-1-oxopropan-2-yl)carbamoyl)cyclopropyl)phenyl) cyclobutane-1-carboxamide], the Emax stood at 66.4 ± 2.06% and the EC50 was determined as 77.9 nM.
Take `CC(C)(Cn1cc(C(F)(F)F)cn1)NC(=O)[C@@H](Cc1cnc2ncccn12)NC(=O)[C@H]1C[C@@H]1c1ccc(-c2cnc3nccn3c2)cc1` [Example 47, (1S,2S)-N-((R)-3-(Imidazo[1,2-a]pyrimidin-3-yl)-1-((2-methyl-1-(4-(trifluoromethyl)-1H-pyrazol-1-yl)propan-2-yl)amino)-1-oxopropan-2-yl)-2-(4-(imidazo[1,2-a]pyrimidin-6-yl)phenyl) cyclopropane-1-carboxamide]: the maximal effect (Emax) was found to be 84.6 ± 1.49% and the EC50 was 41.5 nM.
For `CC(C)(Cc1ccc(F)cc1)NC(=O)[C@@H](Cc1cnc2ncccn12)NC(=O)[C@H]1C[C@@H]1c1ccc(NC(=O)C2CC(F)(F)C2)cc1` [Example 48, 3,3-Difluoro-N-(4-((1S,2S)-2-(((R)-1-((1-(4-fluorophenyl)-2-methylpropan-2-yl)amino)-3-(imidazo[1,2-a]pyrimidin-3-yl)-1-oxopropan-2-yl)carbamoyl)cyclopropyl)phenyl)cyclobutane-1-carboxamide], the Emax came to 56.5 ± 4.38% and the EC50 was found to be 76.9 nM.
On the same counts, the results for `CC(C)(Cc1ccc(F)cc1)NC(=O)[C@@H](Cc1cnc2ncccn12)NC(=O)[C@H]1C[C@@H]1c1ccc(NC(=O)C2CCC(F)(F)CC2)cc1` [Example 49, 4,4-Difluoro-N-(4-((1S,2S)-2-(((R)-1-((1-(4-fluorophenyl)-2-methylpropan-2-yl)amino)-3-(imidazo[1,2-a]pyrimidin-3-yl)-1-oxopropan-2-yl)carbamoyl)cyclopropyl)phenyl)cyclohexane-1-carboxamide] are 72.6 ± 3.47% and 12.6 nM.
As for `Cn1cc(C[C@@H](NC(=O)[C@H]2C[C@@H]2c2ccc(-c3cnc4nn(C)cc4c3)cc2)C(=O)NC(C)(C)Cn2nc(C(F)(F)F)cc2C2CCC2)cn1` [Example 51, (1S,2S)-N—((R)-1-((1-(5-Cyclobutyl-3-(trifluoromethyl)-1H-pyrazol-1-yl)-2-methylpropan-2-yl)amino)-3-(1-methyl-1H-pyrazol-4-yl)-1-oxopropan-2-yl)-2-(4-(2-methyl-2H-pyrazolo[3,4-b]pyridin-5-yl)phenyl)cyclopropane-1-carboxamide], the Emax came to 120 ± 6.49% and the EC50 was 62.7 nM.
For `Cn1cc(C[C@@H](NC(=O)[C@H]2C[C@@H]2c2ccc(-c3cnc4nn(C)cc4c3)cc2)C(=O)NC(C)(C)Cn2nc(C(F)(F)F)cc2-c2ccn(C)c(=O)c2)cn1` [Example 52, (1S,2S)-N—((R)-1-((2-Methyl-1-(5-(1-methyl-2-oxo-1,2-dihydropyridin-4-yl)-3-(trifluoromethyl)-1H-pyrazol-1-yl)propan-2-yl)amino)-3-(1-methyl-1H-pyrazol-4-yl)-1-oxopropan-2-yl)-2-(4-(2-methyl-2H-pyrazolo[3,4-b]pyridin-5-yl)phenyl)cyclopropane-1-carboxamide], the Emax was determined as 98.4 ± 3.96% and the EC50 came to 53 nM.
On the same counts, the results for `Cn1cc(C[C@@H](NC(=O)[C@H]2C[C@@H]2c2ccc(-c3cnc4nn(C)cc4c3)cc2)C(=O)NC(C)(C)Cn2nc(C(F)(F)F)cc2-c2cnn(C3COC3)c2)cn1` [Example 54, (1S,2S)-N-((R)-1-((2-Methyl-1-(1′-(oxetan-3-yl)-5-(trifluoromethyl)-1′H,2H-[3,4′-bipyrazol]-2-yl)propan-2-yl)amino)-3-(1-methyl-1H-pyrazol-4-yl)-1-oxopropan-2-yl)-2-(4-(2-methyl-2H-pyrazolo[3,4-b]pyridin-5-yl)phenyl) cyclopropane-1-carboxamide] are 137 ± 14.1% and 76.8 nM.
